In one data set the test system is H358. Description: Non Small Cell Lung Cancer Proliferation Assay (Alamar Blue), dose response. To be noted: Homo sapiens, NCI-H358, read-out: H358 Dose Response (uM). (Alamar Blue is a resazurin reagent that responds to reducing activity.)
For another data set, the system named is H1975. Kind of data set: Non Small Cell Lung Cancer Proliferation Assay (Alamar Blue). It counts as cell-based, human. As to conditions: Homo sapiens, NCI-H1975, dose response 10 μM to 5 nM. The method, then:
(§1) Non Small Cell Lung Cancer cell lines are grown and maintained in Corning 175 cm2 flasks in RPMI 1640 media supplemented with 10% FBS, 1% antibiotic solution, 1% additional glutamine and pyruvate. These cells have a doubling time of 1-2 days. All cell types are adherent and grow in colonies. The cells should be kept at a density between 50,000 cells/mL-500,000 cells/mL to provide for optimum growth and adequate nutrition. The cell line should be maintained at 37° C. in a humidified atmosphere with 5% CO2 in a sterile cell culture incubator.
(§2) To perform the assay, the Non Small Cell Lung Cancer lines are diluted in media and plated into 384 well microplates at a final density of 250 cells in 45 μL. To ensure consistency and minimal pipetting error, the cells are plated using the Multidrop 384 with the following settings: Rocker Switch set at 384, Volume 45 and Column 24.
(§3) Low Controls for this assay are made by treating Non Small Cell Lung Cancer cells with 5 ul of staurosporine at 250 uM in 10% DMSO and 1% SDS. [Final concentration in this assay is 25 uM staurosporine in 1% DMSO and 0.1% SDS.]
(§4) High Controls for this assay are made by treating Non Small Cell Lung Cancer cells with 5 ul of 10% DMSO. [Final concentration in this assay is 1% DMSO].
(§5) The remaining wells of the 384 microplate may be treated with different compounds depending on the study. Important Note: All compounds for testing in this assay should be done at the final concentration of 1% DMSO.
(§6) After addition, the cells are placed in cell culture incubator at 37° C. for 48 hours for complete treatment.
(§7) After drug treatment, cytotoxicity is measured by Alamar Blue reduction. 5 μL of Alamar Blue is added to the 384 microplates using the Flexdrop.
(§8) The cells are incubated for 48 hours at 37° C. to complete the Alamar Blue reduction.
(§9) The final step in the assay is to measure the amount of Alamar Blue reduction. […] The Alamar Blue fluorescence is measured at an excitation of 530 nm and emission of 590 nm.
(§10) For the NSCLC project, the cell based assay was screened against a small molecule library of approximately 200,000 compounds. The compound library is stored in our automated robotic freezer (Biophile) at −20° C. in 100% DMSO. Compound freeze and thaw cycles are kept to a minimum. Compounds for use are diluted into the appropriate concentration and plated into 384 well microplates using our custom built low volume 384-well head tool (TPS 384, Apricot Designs Inc., CA, USA). This assay was performed on a fully automated linear track robotic platform (CRS F3 Robot System, Thermo Electron Corp., Ontario, Canada) utilizing several integrated peripherals for plate handling, liquid dispensing, and readout detection. First, non-small cell lung cancer cell lines are dispensed into 384 well microplates (Corning #3712 Tissue Culture Treated Plate, Corning, N.Y., USA) with 5 μL of test compounds at 100 uM in 10% DMSO for screening studies or 1 mM in 10% DMSO to 50 nM in 10% DMSO for dose response studies. The microplates are then placed at 37° C. for 48 hours to complete treatment of cells with compounds. Next, 5 ul of alamar blue was added using a liquid dispenser (FlexDrop Precision Dispenser, Perkin Elmer, Mass., USA) and incubated for 48 hours at 37° C. The alamar blue prompt fluorescence was measured on Victor V (Victor^3 V, Perkin Elmer, Mass., USA) and output data files were loaded into ORIS (Oncology Research Informatics System, MSKCC, NY, USA), a screening data acquisition and analysis platform.

For a further data set, the system named is H1650. The data set is described as above. It counts as cell-based, human. As to conditions: Homo sapiens, NCI-H1650, dose response 10 μM to 5 nM. As to the method:
as §1, §2, §3, §4, §5, §6, §7, §8, §9, §10

The subject of the next data set is H1118. Kind of data set: Non Small Cell Lung Cancer Proliferation Assay (Alamar Blue), dose response. To be noted: Homo sapiens, read-out: H1118 Dose Response (uM).
Data set [1] relates to 15 non small cell lung cancer lines representing various EGFR and KRAS mutations. Kind of data set: Dose response studies against 15 NSCLC lines (alamar blue). It counts as cell-based, human. To be noted: 12 point doubling dilution 10 uM to 5 nM, alamar blue. As to the method:
Dose response studies against 34 compounds from the pyridazinone and phenylfuran-carboxamide class were conducted. […] In addition, Tarceva was included in these dose response studies.
The dose response studies were done with the following standard procedure. First, the cells were counted and dispensed at 250 cells/well into 384-well microplates with compound. The cells were incubated for 48 hours at 37 C to complete treatment, and then alamar blue was added for an additional 48 hours. Finally, alamar blue reduction was measured and the data was loaded into ORIS, our data screening acquisition platform.

A short description of another data set: in vitro. As to conditions: human. The method, then:
NHBE (normal human bronchiolar epithelial cells) are primary cells obtained from donor lungs and commercially available from Cambrex. The HPLID (human peripheral lung epithelial) cell line has been immortalized with the SV40 large T-antigen. WI-38: human lung fibroblast cell line. HPLID, NHBE and WI-38 cells will serve as controls in the chemical screens. WT: wildtype; WT*: over-expressed wildtype.
Compounds were tested in dose response studies from 10 μM to 5 nM against several non small cell lung cancer lines: H358, H827, H1118, H1650, H1734, H1975, H2030, and H3255, and were also studied in a 72 hour cytotoxicity assay against the NHBE and WI-38 cell lines.

The subject of another data set is H827. Description: Non Small Cell Lung Cancer Proliferation Assay (Alamar Blue), dose response. To be noted: Homo sapiens, read-out: H827 Dose Response (uM).

Where two headings read alike, the source gives them in different places.

Protocol for H1118: (§11) This assay was performed on a fully automated linear track robotic platform (CRS F3 Robot System, Thermo Electron Corp., Ontario, Canada) utilizing several integrated peripherals for plate handling, liquid dispensing, and readout detection. […] The microplates are then placed at 37° C. for 48 hours to complete treatment of cells with compounds. Next, 5 ul of alamar blue was added using a liquid dispenser (FlexDrop Precision Dispenser, Perkin Elmer, Mass., USA) and incubated for 48 hours at 37° C. The alamar blue prompt fluorescence was measured on Victor V (Victor^3 V, Perkin Elmer, Mass., USA) and output data files were loaded into ORIS (Oncology Research Informatics System, MSKCC, NY, USA), a screening data acquisition and analysis platform. […]
Protocol for H358: as §11
Protocol for H827: as §11

As for `Cc1ccccc1-n1ncc(Cl)c(Cl)c1=O` [compound 257017], the IC50 with H358 is 0.74 µM; in the data set with H1975 it was 470 nM; with H1650, 2740 nM; in the data set with H1118, 0.49 µM; in data set [1] (HPL1D (SV40-immortalized human lung epithelian cells, EGFR WT, KRAS WT), read-out: IC50 HPL1D), 1140 nM; in data set [1] (Homo sapiens, NCI-H358, H358 (EGFR WT, KRAS G12C), read-out: IC50 H358) it was 1700 nM. Also, the IC50 in data set [1] (Homo sapiens, NCI-H460, H460 (EGFR WT, KRAS Q61H), read-out: IC50 H460) is 3680 nM; in data set [1] (Homo sapiens, NCI-H820, H820 (EGFR T790M/DelE746-A750, KRAS WT), read-out: IC50 H820) it was 470 nM; in data set [1] (Homo sapiens, NCI-H1650, H1650 (EGFR DelE746-A750, KRAS WT), read-out: IC50 H1650), 1670 nM; in data set [1] (Homo sapiens, NCI-H1734, H1734 (EGFR WT, KRAS G13C), read-out: IC50 H1734) it was 3200 nM; in data set [1] (Homo sapiens, NCI-H1975, H1975 (KRAS WT), read-out: IC50 H1975) it was 760 nM; in data set [1] (Homo sapiens, NCI-H2030, H2030 (EGFR WT, KRAS G12C), read-out: IC50 H2030) it was 1380 nM. In addition, the IC50 in data set [1] (Homo sapiens, NCI-H2122, H2122 (EGFR WT, KRAS G12C), read-out: IC50 H2122) amounted to 2160 nM; in data set [1] (Homo sapiens, NCI-H2444, H2444 (EGFR WT, KRAS G12V), read-out: IC50 H2444), 1050 nM; in data set [1] (Homo sapiens, NCI-H3255, H3255 (EGFR L858R, KRAS WT), read-out: IC50 H3255), 3160 nM; in data set [1] (Homo sapiens, A549 (EGFR WT, KRAS G12S), read-out: IC50 A549), 2130 nM; in data set [1] (Homo sapiens, H23 (EGFR WT, KRAS G12C), read-out: IC50 H23), 310 nM; in data set [1] (Homo sapiens, H1118 (EGFR L858R, KRAS WT), read-out: IC50 H1118), 830 nM. The IC50 in data set [1] (Homo sapiens, PC9 (EGFR DclE746-A750, KRAS WT), read-out: IC50 PC9) stood at 2000 nM; in the data set on H827, 0.71 µM. In addition, the IC50 at 72 h in “in vitro” is 7.52 µM; in the data set “in vitro” (NHBE CytoTox (uM)), 5.17 µM.

For the origin of these results see patent publication US20130131062A1, “PYRIDAZINONES AND FURAN-CONTAINING COMPOUNDS” (priority 2006, published 2013).
